Assay [1] concerns the target T1, human amylin receptor (calcitonin receptor co-expressed with receptor activity modifying protein, RAMP3) (hAMYR3) (Homo sapiens, UniProt O60896+P30988).
T1 construct: expressed in transfected cells
T1 sequence (P30988 25-474): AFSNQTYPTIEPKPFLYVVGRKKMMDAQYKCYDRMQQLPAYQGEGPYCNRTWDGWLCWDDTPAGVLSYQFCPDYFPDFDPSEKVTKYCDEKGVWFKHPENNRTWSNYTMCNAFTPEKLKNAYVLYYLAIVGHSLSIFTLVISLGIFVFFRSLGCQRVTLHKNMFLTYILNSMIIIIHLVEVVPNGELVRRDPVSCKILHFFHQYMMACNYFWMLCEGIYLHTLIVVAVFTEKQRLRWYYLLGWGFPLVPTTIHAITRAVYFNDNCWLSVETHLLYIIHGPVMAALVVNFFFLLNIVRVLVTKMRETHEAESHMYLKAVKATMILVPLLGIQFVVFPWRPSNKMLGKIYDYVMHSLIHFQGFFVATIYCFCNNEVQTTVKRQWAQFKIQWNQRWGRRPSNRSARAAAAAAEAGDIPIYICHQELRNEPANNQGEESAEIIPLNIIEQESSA
T1 sequence (O60896 24-148 partner): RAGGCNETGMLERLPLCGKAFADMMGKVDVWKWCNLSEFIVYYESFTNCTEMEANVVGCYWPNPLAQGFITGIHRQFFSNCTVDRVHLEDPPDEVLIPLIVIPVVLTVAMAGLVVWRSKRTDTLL
Nature of the assay: cAMP production in 1321N1 cells with stable recombinant expression of human amylin receptor (hAMYR3). Type of assay: cell-based. The conditions noted are these: for Ratio (selectivity hAMYR vs hCTR, ratio of EC50 values at the two receptors): EC50 hCTR / EC50 hAMYR3; for EC50: cAMP, 1321N1 cells, assay buffer with 0.1% BSA, read-out: EC50 (pM) hAMYR3. The method in brief: (§1)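 EC50 values come from 4-parameter logistic fits of HTRF cAMP signal, normalised to maximal calcitonin or amylin effect. Peptides were tested in duplicate for 30 min at RT in IBMX-containing (0.5 mM) BSA/HEPES buffer pH 7.4 on stable 1321N1 (human CTR, AMYR3) or HEK (rat CTR, AMYR3) lines.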
For orientation: Changes in cAMP serve as a functional read-out for many G protein-coupled receptors.

For another assay, the system named is lean rats. In words: Rat acute food intake study. Type of assay: in vivo. The settings on record: lean male Sprague Dawley rats, 20 nmol/kg subcutaneously. The method in brief:
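Male Sprague Dawley rats (n=7/group), fasted 6 h, received 20 nmol/kg test compound or 60 nmol/kg pramlintide subcutaneously 30 min before food return at dark onset. Food intake recorded automatically in home cages over 3 days, binned hourly and analysed as cumulative dark-period intake; body weight taken daily.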

Assay [2] has as its target T2, human calcitonin receptor (hCTR) (Homo sapiens, UniProt P30988).
T2 construct: expressed in transfected cells
T2 sequence (P30988 25-474): T1 sequence (P30988 25-474)
Nature of the assay: cAMP production in 1321N1 cells with stable recombinant expression of human calcitonin receptor (hCTR). The conditions noted are these: cAMP, 1321N1 cells, assay buffer with 0.1% BSA; read-out: EC50 (pM) hCTR. Type of assay: cell-based. The method in brief:
as §1

Assay [3] has as its target T3, rat calcitonin receptor (rat CTR) (Rattus norvegicus, UniProt P32214).
T3 construct: expressed in transfected cells
T3 sequence (P32214 25-516): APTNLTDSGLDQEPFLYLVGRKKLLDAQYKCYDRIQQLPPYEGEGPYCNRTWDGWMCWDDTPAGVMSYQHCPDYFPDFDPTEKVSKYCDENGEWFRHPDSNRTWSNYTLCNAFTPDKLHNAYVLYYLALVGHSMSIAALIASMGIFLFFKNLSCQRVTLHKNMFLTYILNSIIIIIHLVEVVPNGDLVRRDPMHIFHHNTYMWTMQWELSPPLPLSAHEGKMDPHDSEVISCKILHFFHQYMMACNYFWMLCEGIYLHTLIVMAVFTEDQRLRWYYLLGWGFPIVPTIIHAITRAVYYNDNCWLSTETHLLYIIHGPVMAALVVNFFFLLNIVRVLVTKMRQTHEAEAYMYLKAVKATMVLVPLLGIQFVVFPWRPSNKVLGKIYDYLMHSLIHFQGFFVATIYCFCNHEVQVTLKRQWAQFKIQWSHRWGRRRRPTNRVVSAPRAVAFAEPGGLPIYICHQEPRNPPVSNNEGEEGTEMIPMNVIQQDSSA
In words: cAMP production in HEK cells with stable recombinant expression of rat calcitonin receptor (rat CTR). It is filed as cell-based. The conditions noted are these: assay buffer with 0.1% BSA. The essentials: as §1

Assay [4] concerns the target T4, rat amylin receptor (calcitonin receptor co-expressed with receptor activity modifying protein, RAMP3) (Rat AMYR3) (Rattus norvegicus, UniProt P32214+Q9JJ73).
T4 construct: expressed in transfected cells
T4 sequence (P32214 25-516): T3 sequence (P32214 25-516)
T4 sequence (Q9JJ73 23-147 partner): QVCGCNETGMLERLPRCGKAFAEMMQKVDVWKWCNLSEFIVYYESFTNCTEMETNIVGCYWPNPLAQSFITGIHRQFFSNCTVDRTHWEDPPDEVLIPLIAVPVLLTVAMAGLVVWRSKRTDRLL
Nature of the assay: cAMP production in HEK cells with stable recombinant expression of rat amylin receptor (Rat AMYR3). It is filed as cell-based. The conditions noted are these: assay buffer with 0.1% BSA. The essentials: as §1

Numbered stars: 1 amine (or outer) side, 2 acyl side, 3 side chain; on linkers, the order of the positions; unused ones are H or OH. Bridge positions count the residues as written; N and C are the ends. Square brackets hold non-standard residues; d marks the D form. Side chains are listed from the residue outwards. Peptide text beside a SMILES is read from it. * marks the point of attachment. C18 diacid = O=C(O)CCCCCCCCCCCCCCCCC(=O)*; γGlu = O=C(O)[C@H](CCC(=O)[*:2])N[*:1]; Dab = NCC[C@H](N)C(=O)O; Aib = CC(C)(N)C(=O)O

The EC50 is the midpoint of the concentration-response curve.

Turning to `CC[C@H](C)[C@H](NC(=O)[C@@H]1CCCN1C(=O)CNC(=O)[C@H](Cc1ccccc1)NC(=O)[C@H](CC(N)=O)NC(=O)[C@H](CC(N)=O)NC(=O)[C@H](CO)NC(=O)[C@H](CO)NC(=O)[C@H](Cc1c[nH]cn1)NC(=O)[C@@H](NC(=O)[C@H](CC(C)C)NC(=O)[C@H](Cc1ccccc1)NC(=O)[C@H](CC(N)=O)NC(=O)[C@H](C)NC(=O)[C@H](CC(C)C)NC(=O)[C@H](CCCNC(=N)N)NC(=O)[C@H](CCC(N)=O)NC(=O)[C@@H](NC(=O)[C@H](C)NC(=O)[C@@H]1CSSC[C@H](NC(=O)[C@H](CCCCN)NC(=O)CC[C@H](NC(=O)CCCCCCCCCCCCCCCCC(=O)O)C(=O)O)C(=O)N[C@@H](CC(N)=O)C(=O)N[C@@H]([C@@H](C)O)C(=O)N[C@@H](C)C(=O)N[C@@H]([C@@H](C)O)C(=O)N1)[C@@H](C)O)C(C)C)C(=O)N[C@@H](CC(C)C)C(=O)N1CCC[C@H]1C(=O)N1CCC[C@H]1C(=O)N[C@H](C(=O)N[C@@H](CC(N)=O)C(=O)N[C@H](C(=O)NCC(=O)N[C@@H](CO)C(=O)N[C@@H](CC(N)=O)C(=O)N[C@H](C(=O)N[C@@H](Cc1ccc(O)cc1)C(N)=O)[C@@H](C)O)C(C)C)[C@@H](C)O` [Peptide 3] ({C18 diacid-γGlu}-KCNTATCATQRLANFLVHSSNNFGPILPPTNVGSNTY-NH2; disulfide 2-7), the “Ratio (selectivity hAMYR vs hCTR, ratio of EC50 values at the two receptors)” value in assay [1] is on record as 5. Moreover, the EC50 in assay [1] worked out at 246 pM; in assay [2], 1350 pM; in assay [3] it was 186 pM; in assay [4], 2.9 pM. Further, the “Cummulative food intake (% vehicle treated intake) At 12 h” value in the assay on lean rats turned out to be 13.4 % vehicle treated intake. Moreover, the “Cummulative food intake (% vehicle treated intake) At 24 h” value in the assay on lean rats is on record as 14.4 % vehicle treated intake. The “Cummulative food intake (% vehicle treated intake) At 48 h” value in the assay on lean rats was determined as 30.3 % vehicle treated intake.

For `CC[C@H](C)[C@H](NC(=O)[C@H](C)NC(=O)[C@@H]1CCCN1C(=O)[C@H](Cc1ccccc1)NC(=O)[C@H](CC(N)=O)NC(=O)[C@H](CCN)NC(=O)[C@H](CO)NC(=O)[C@H](CO)NC(=O)[C@H](Cc1c[nH]cn1)NC(=O)[C@@H](NC(=O)[C@H](CC(C)C)NC(=O)[C@H](Cc1ccccc1)NC(=O)[C@H](CC(N)=O)NC(=O)[C@H](C)NC(=O)[C@H](CC(C)C)NC(=O)[C@H](CCCNC(=N)N)NC(=O)[C@H](CCC(N)=O)NC(=O)[C@@H](NC(=O)[C@H](C)NC(=O)[C@@H]1CSSC[C@H](NC(=O)[C@@H](N)CCCCNC(=O)CC[C@H](NC(=O)CC[C@H](NC(=O)CCCCCCCCCCCCCCCCC(=O)O)C(=O)O)C(=O)O)C(=O)N[C@@H](CC(N)=O)C(=O)N[C@@H]([C@@H](C)O)C(=O)N[C@@H](C)C(=O)N[C@@H]([C@@H](C)O)C(=O)N1)[C@@H](C)O)C(C)C)C(=O)N[C@@H](CC(C)C)C(=O)N[C@@H](CO)C(=O)N1CCC[C@H]1C(=O)N[C@H](C(=O)N[C@@H](CC(N)=O)C(=O)N[C@H](C(=O)NCC(=O)N[C@@H](CO)C(=O)N[C@@H](CC(N)=O)C(=O)N[C@H](C(=O)N[C@@H](Cc1ccc(O)cc1)C(N)=O)[C@@H](C)O)C(C)C)[C@@H](C)O` [Peptide 8, K(γE-γE-C18diacid)[CNTATC]ATQRLANFLVHSS(Dab)NFPAILSPTNVGSNTY-amide] (H-K([γGlu-γGlu-C18 diacid])CNTATCATQRLANFLVHSS[Dab]NFPAILSPTNVGSNTY-NH2; disulfide 2-7), in assay [1], the “Ratio (selectivity hAMYR vs hCTR, ratio of EC50 values at the two receptors)” value worked out at 54 and the EC50 is 375 pM. In the assay with lean rats, the “Cummulative food intake (% vehicle treated intake) At 12 h” value is 28.1 % vehicle treated intake, the “Cummulative food intake (% vehicle treated intake) At 24 h” value is recorded as 42.7 % vehicle treated intake and the “Cummulative food intake (% vehicle treated intake) At 48 h” value was 68.8 % vehicle treated intake. The half-maximal effective concentration (EC50) in assay [2] stood at 20200 pM. Moreover, the concentration giving a half-maximal response (EC50) in assay [3] is 19900 pM. Moreover, the EC50 in assay [4] is 25.6 pM.

Turning to `CC[C@H](C)[C@H](NC(=O)[C@H](C)NC(=O)[C@@H]1CCCN1C(=O)[C@H](Cc1ccccc1)NC(=O)[C@H](CC(N)=O)NC(=O)C(C)(C)NC(=O)[C@H](CO)NC(=O)[C@H](CO)NC(=O)[C@H](Cc1c[nH]cn1)NC(=O)[C@@H](NC(=O)[C@H](CC(C)C)NC(=O)[C@H](Cc1ccccc1)NC(=O)[C@H](CC(N)=O)NC(=O)[C@H](C)NC(=O)[C@H](CC(C)C)NC(=O)[C@H](CCCNC(=N)N)NC(=O)[C@H](CCC(N)=O)NC(=O)[C@@H](NC(=O)[C@H](C)NC(=O)[C@@H]1CSSC[C@H](NC(=O)[C@@H](N)CCCCNC(=O)CC[C@H](NC(=O)CC[C@H](NC(=O)CCCCCCCCCCCCCCCCC(=O)O)C(=O)O)C(=O)O)C(=O)N[C@@H](CC(N)=O)C(=O)N[C@@H]([C@@H](C)O)C(=O)N[C@@H](C)C(=O)N[C@@H]([C@@H](C)O)C(=O)N1)[C@@H](C)O)C(C)C)C(=O)N[C@@H](CC(C)C)C(=O)N[C@@H](CO)C(=O)N1CCC[C@H]1C(=O)N[C@H](C(=O)N[C@@H](CC(N)=O)C(=O)N[C@H](C(=O)NCC(=O)N[C@@H](CO)C(=O)N[C@@H](CC(N)=O)C(=O)N[C@H](C(=O)N[C@@H](Cc1ccc(O)cc1)C(N)=O)[C@@H](C)O)C(C)C)[C@@H](C)O` [Peptide 9, K(γE-γE-C18diacid)[CNTATC]ATQRLANFLVHSS(Aib)NFPAILSPTNVGSNTY-amide] (H-K([γGlu-γGlu-C18 diacid])CNTATCATQRLANFLVHSS[Aib]NFPAILSPTNVGSNTY-NH2; disulfide 2-7), the “Ratio (selectivity hAMYR vs hCTR, ratio of EC50 values at the two receptors)” value in assay [1] is reported as 42. In addition, the EC50 turned out to be 320 pM in assay [1], 13500 pM in assay [2], 9720 pM in assay [3] and 17.8 pM in assay [4]. Also, the “Cummulative food intake (% vehicle treated intake) At 12 h” value in the assay on lean rats stood at 21.9 % vehicle treated intake. Besides, in the assay on lean rats, the “Cummulative food intake (% vehicle treated intake) At 24 h” value was determined as 30.8 % vehicle treated intake. For the same compound, the “Cummulative food intake (% vehicle treated intake) At 48 h” value in the assay with lean rats was found to be 56.5 % vehicle treated intake.

Values taken from patent publication US20240067693A1, “POLYPEPTIDES AND USES THEREOF” (MEDIMMUNE LIMITED, priority 2020, published 2024).
